The conditions of data set [1]: mice; for number of micronuclei in the reticulocytes vs negative control / number of reticulocytes in peripheral blood vs negative control: 48 and 72 hours after administration. Here is the method:
In this experiment, the Formula I compound—Ovatodiolide on the peripheral blood micronucleus was tested in mice (ICR strain). This experiment mainly tested the effect of the Formula I compound—Ovatodiolide on the ratio of the occurrence of micronucleus in the peripheral blood of the mice (in vivo), so as to evaluate the level of damages caused by directly or indirectly triggered gene mutations of erythrocyte chromosomes or mitosis. ICR mice were used as the experimental subjects of this experiment, and the experiment was divided into 5 groups, the negative control group, the positive control group (Cyclophosphamide, 60 mg/kg bw ip), the Formula I compound—Ovatodiolide low dose (0.25 g/kg bw) group, the medium Dosage (0.5 g/kg bw) group and the high dose (1 g/kg bw) group, 5 mice (male) in each group, and Ovatodiolide was fed once by a gastric tube, 48 and 72 hours after the tested substances were administered, the reticulocytes and the occurrence (%) of micronucleus in the reticulocytes in the peripheral blood of the mice were evaluated.

The subject of data set [2] is SARS-CoV-2 pseudovirus. Nature of the data set: microbe, parasite or virus in culture. Type of data set: cell-based.
Data set [3] is described as follows: Single-dose oral acute toxicity test in rats. The format is in vivo, rats (Sprague-Dawley, S D strain). As to the method:
This example was a single-dose oral acute toxicity safety test of the Formula I compound—Ovatodiolide in rats, and a reference for food safety assessment was provided. […] In this experiment, single-dose oral acute toxicity tests of the Formula I compound—ovatodiolide were conducted in rats (Sprague-Dawley, S D strain). The Formula I compound—Ovatodiolide was in the form of yellowish crystals, the test purity was 99.95%, 10% of DMSO was used to prepare a solution concentration of 0.1 g/mL during the experiment, the feeding volume of each rat was 10 mL/kg body weight, the rats were fed orally based on their body weights on that day, the final dose was 1 g/kg-body weight in total, and the rats were continuously observed for 14 days after administration. […] No effects on the serum liver and kidney enzyme values of the male and female rats in the treatment group, including aspartate aminotransferase (AST), alanine aminotransferase (ALT), blood urea nitrogen (BUN), and creatinine, etc.

Data set [4] can be described thus: 28-day feeding (repeated dose oral) toxicity test in rats. Type of data set: in vivo, rats (Sprague-Dawley, S D strain). As to the method: This experiment investigated whether the Formula I compound—Ovatodiolide might cause potential side effect toxicity to human bodies for clinical safety assessment, and 28-day repeated-dose oral toxicity tests of the Formula I compound—Ovatodiolide were conducted to observe clinical side effects. The Formula I compound—Ovatodiolide was a yellowish crystal, the test purity was regarded as 99.95%, and the samples were prepared with 5% of DMSO during the tests. Rats (Sprague-Dawley, S D strain) were divided into 4 groups, the control group (5% of DMSO), the low-dose group (10 mg/kg-body weight), the medium-dose group (25 mg/kg body weight) and the high-dose group (50 mg/kg-body weight), 20 rats in each group, half males and half females, each rat was fed with a volume of 10 mL/kg-body weight, and the rats were orally fed according to their body weight on the day for 28 consecutive days. […] In view of the above test results, after the rats of the low-dose group (10 mg/kg-body weight), the medium-dose group (25 mg/kg-body weight) and the high-dose group (50 mg/kg-body weight) were orally fed respectively with the Formula I compound—Ovatodiolide for 28 days continuously, no toxic reactions was caused to various organs of the male and female rats, and the “No observed adverse effect level” (NOAEL) for the 28-day feeding toxicity test in rats was 50 mg/kg-body weight, the equivalent human dose was about 8 mg/kg-body weight.

In data set [5] the test system is CHO-K1 cells. Put plainly: In vitro mammalian chromosome aberration test, with cytotoxicity test. Type of data set: cell-based. Conditions: for survival rate of the CHO-K1 cells: 24 hours. As to the method:
In this experiment, the chromosomal aberration test with mammalian cell in culture of the Formula I compound—Ovatodiolide was carried out. The Formula I compound—Ovatodiolide was yellowish crystals, and prepared with Dimethyl sulfoxide (DMSO) during the test. The cytotoxicity test was divided into two parts, in one part, CHO-K1 cells was reacted directly with the Formula I compound—Ovatodiolide, and in the other part, rat liver activating enzyme extract (S9) was used to simulate human metabolism, CHO-K1 cells, the rat liver activating enzyme extract (S9) and the Formula I compound—Ovatodiolide were mixed and then reacted.

In data set [6] the test system is influenza virus. Nature of the data set: Test experiments on influenza virus in contrast to Tamiflu.
The test system of data set [7] is HIV virus. Conditions: Fitoterapia, 2000, 71(5): 574-576; cited from earlier work.
[8] abbreviates: male and female rats, 1 g/kg-body weight oral.

The structures appear in SMILES notation.

As to `O=P1(N(CCCl)CCCl)NCCCO1` (stereo not drawn) [Cyclophosphamide, reference compound], in data set [1], the “number of micronuclei in the reticulocytes vs negative control” value is reported as “increased significantly” and the “number of reticulocytes in peripheral blood vs negative control” value is given as “significantly decreased”.
For the compound `C=C1C(=O)O[C@@H]2/C=C(\C)C[C@H]3C=C(CC/C=C(\C)CC[C@@H]12)C(=O)O3` [Ovatodiolide], in data set [2], the “inhibitory effect on coronavirus infections” value is reported as “significant inhibitory effect on coronavirus infections at the micromolar level”. Also, the IC50 in data set [2] (Severe acute respiratory syndrome-related coronavirus, Huh-7, 64 h, read-out: IC50 for inhibiting SARS-CoV-2 infections) was found to be 3.73 µM. For the same compound, the “equivalent human dose of the single acute dose” value in data set [3] (from 1 g/Kg-body weight in rats) is listed as “about 50 mg/kg-body weight”. In data set [3] (setting [8]), the “blood values (WBC, RBC, Hct, MCV, MCH, MCHC, platelets, leukocyte classification)” value is listed as “no significant abnormal changes”; the “serum liver and kidney enzyme values (AST, ALT, BUN, creatinine)” value was “No effects”; the “weekly body weight and body weight gain vs control group” value is recorded as “no significant difference”. Further, the “histopathological examination of important organs” value in data set [3] (rats, 1 g/kg-body weight oral) is recorded as “no histopathological changes in relation to the test substances”. Further, the “acute poisoning or death” value in data set [3] (rats, single oral dose 1 g/Kg-body weight, observed 14 days) was “no acute poisoning or death”. Moreover, in data set [4] (from rat NOAEL, 28-day feeding), the “equivalent human dose of the NOAEL” value is on record as “about 8 mg/kg-body weight”. Also, the “histopathological examination of organs” value in data set [4] (high-dose group (50 mg/kg-body weight), 28 days) is recorded as “no pathological changes related to organ toxicity reaction”. The “body weight changes, feed consumptions, urine, blood values, serum enzyme values and organ weights vs control” value in data set [4] (male and female rats, each treatment group, 28 days) is listed as “within the normal range”. For the same compound, in data set [4] (rats, oral 10, 25 and 50 mg/kg-body weight, 28 days), the “symptoms of being poisoned or death” value is on record as “no symptoms of being poisoned or death”. The “No observed adverse effect level (NOAEL)” value in data set [4] (rats, oral, 28 consecutive days) is 50 mg/kg-body weight. Also, the “survival rate of the CHO-K1 cells” value in data set [5] (17.5 μM, without S9 (−S9)) is listed as “about 65.6%”. In addition, in data set [5] (75 μM, with S9 (+S9)), the “survival rate of the CHO-K1 cells” value is reported as “about 60.3%”. For the same compound, in data set [5] (12.5, 15 and 17.5 μM (−S9) and 55, 65 and 75 μM (+S9)), the “frequency of chromosomal aberration in the CHO-K1 cells vs negative control” value was “did not increase significantly”. Also, in data set [1], the “number of micronuclei in the reticulocytes vs negative control” value is given as “no significant difference” and the “number of reticulocytes in peripheral blood vs negative control” value is on record as “no significant difference”. Also, in data set [1] (each dose group), the micronucleus test result is given as “negative”. In addition, in data set [1] (single gastric tube dose 0.25, 0.5, 1 g/kg bw, 48 and 72 hours), the “toxicity symptoms and body weight” value is “no toxicity symptoms and no differences in the body weight”. In addition, in data set [6], the “effect on inhibiting influenza virus” value was “excellent effect on inhibiting influenza virus”. Moreover, the “inhibition of HIV virus” value in data set [7] was “can inhibit HIV virus”.

Broadly, the IC50 is the concentration that inhibits the measured activity by half.
